From patent US20060160848A1 (priority 2002, published 2006)
Where two headings read alike, the source gives them in different places.

Assays:
mouse hepatocytes [1] = test: cells; details: Hepatocyte, 1 h
mouse hepatocytes [2] = test: Crotyl alcohol toxicity in isolated mouse hepatocytes (LDH leakage); details: 500 μM crotyl alcohol; for protection against crotyl alcohol toxicity by other hydrazines: 1-100 μM hydrazine, 1-3 hours
mouse hepatocytes [3] = test system: mouse hepatocytes
PC-12 cells = test: Allylamine cytotoxicity in PC-12 cells (MTT)
[4] = pH 7
acrolein-modified BSA = target: T1, acrolein-modified BSA (Bos taurus, UniProt P02769); test: Cell-free immunoassay for adduct-breaking on acrolein-pretreated BSA; assay type: biochemical, bovine; details: for adduct-breaking activity (acrolein-lysine adducts in BSA): BSA pretreated with 1 mM acrolein 20 min, 50, 250 and 500 μM test compound, 30 min at 37° C.
T1 construct: a model protein (BSA, bovine serum albumin); from tissue; host or cells: bovine serum (from the protein's name only)

mouse liver = test: Adduct-trapping in mouse liver proteins (Western blot, immunohistochemistry); assay type: in vivo; details: for immunohistochemical detection of hydralazine-stabilized acrolein adducts in liver sections: 4 hours after 300 μmol/kg i.p., hydralazine given with allyl alcohol, hydrazone given alone
mouse hepatocytes [5] = test system: mouse hepatocytes; remark: listed apart in the source
mouse hepatocytes [6] = details: 15 min, 3 mM hydralazine alone or 0.5 mM acrolein + 0.3 to 3 mM hydralazine
mouse hepatocytes [7] = details: 0.5 mM acrolein; 0.3 to 3 mM hydralazine
acrolein-premodified BSA = acrolein-premodified BSA (Bos taurus, UniProt P02769); details: 1 mM acrolein, then 50 to 500 μM hydralazine 30 min
mouse hepatocytes [8] = test system: mouse hepatocytes; remark: listed apart in the source
[9] = target: bovine pancreas ribonuclease A (Bos taurus, UniProt P61823); details: 3.2 mM acrolein; 0.3 to 3 mM hydralazine
mouse hepatocytes [10] = test system: mouse hepatocytes; remark: listed apart in the source
[11] = hypertensive human subjects, 50 mg oral dose; cited from earlier work
mice = test: Allyl alcohol hepatotoxicity in mice (plasma SDH, GPT, hepatic GSH)
mouse hepatocytes [12] = test: Toxicity of smoke extract in mouse hepatocytes (LDH leakage); assay type: cell-based; details: 50 μM smoke-derived acrolein equivalents; 25, 50 and 100 μM drug; up to 180 min
[13] = Sequestering of crotonaldehyde from buffered solution at 37° C. (HPLC); details: equimolar scavenger, up to 30 minutes
[14] = read-out: PC50 (concentration producing a 50% decrease in LDH leakage)
[15] = 200 vs 100 μmol/kg hydralazine, allyl alcohol 90 mg/kg, 60 minutes
[16] = read-out: PC50 (concentration affording 50% reduction in cell killing)
[17] = allyl alcohol 90 mg/kg i.p., 4 hours, estimated from dose-response
[18] = hydralazine 200 μmol/kg i.p., allyl alcohol 90 mg/kg

Chain of bovine pancreas ribonuclease A (P61823 27-150): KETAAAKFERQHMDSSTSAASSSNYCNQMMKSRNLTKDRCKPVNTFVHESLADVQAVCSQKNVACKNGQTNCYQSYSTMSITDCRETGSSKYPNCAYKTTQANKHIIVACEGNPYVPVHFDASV
T1 sequence (P02769 25-607): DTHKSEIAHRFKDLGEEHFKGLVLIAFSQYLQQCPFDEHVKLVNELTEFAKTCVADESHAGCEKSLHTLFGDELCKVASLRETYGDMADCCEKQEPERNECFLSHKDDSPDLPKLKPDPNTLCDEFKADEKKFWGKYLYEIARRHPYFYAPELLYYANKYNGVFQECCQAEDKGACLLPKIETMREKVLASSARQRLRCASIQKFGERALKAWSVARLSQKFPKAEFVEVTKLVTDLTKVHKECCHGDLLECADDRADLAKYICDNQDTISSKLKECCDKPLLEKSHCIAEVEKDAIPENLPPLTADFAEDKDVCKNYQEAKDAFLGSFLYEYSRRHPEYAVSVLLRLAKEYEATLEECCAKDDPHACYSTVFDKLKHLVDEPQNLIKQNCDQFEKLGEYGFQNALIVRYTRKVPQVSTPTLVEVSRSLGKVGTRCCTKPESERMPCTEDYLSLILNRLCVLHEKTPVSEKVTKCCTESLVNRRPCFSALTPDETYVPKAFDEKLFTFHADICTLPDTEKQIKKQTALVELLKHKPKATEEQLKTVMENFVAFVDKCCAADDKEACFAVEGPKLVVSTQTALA
Chain of acrolein-premodified BSA (P02769 25-607): as above

NNc1cccc2ccccc12 [naphthylhydrazine]
EC50 (mouse hepatocytes [1]; [14]): 7 ± 0.19 µM

NNc1ccccc1 [phenylhydrazine]
EC50 (mouse hepatocytes [1]; [14]): 8 ± 0.28 µM

C/C=C/CO [crotyl alcohol]
cell death induced (mouse hepatocytes [2]; by 3 hours): 100%

Nc1ccc(O)cc1 [p-aminophenol]
EC50 (mouse hepatocytes [1]; [14]): 20 ± 8.5 µM

c1ccc(Nc2ccc(Nc3ccccc3)cc2)cc1 [N,N′-Diphenyl-p- phenylenediamine, N,N′-Diphenyl-p-phenylenediamine]
EC50 (mouse hepatocytes [1]; [14]): 4 ± 1.3 µM

NNCc1ccccc1 [benzylhydrazine]
EC50 (mouse hepatocytes [1]; [14]): 37 ± 1.8 µM
protection against crotyl alcohol toxicity by other hydrazines (mouse hepatocytes [2]): very poor cytoprotection

O=P1(N(CCCl)CCCl)NCCCO1 (stereo not shown) [cyclophosphamide]
concentration producing complete cell death (mouse hepatocytes [3]; 18-hr incubation): ≥ 250 µM

Nc1ccccc1O [o-aminophenol]
EC50 (mouse hepatocytes [1]; [14]): 18 ± 3.2 µM

C=CCN [allylamine]
EC50 (PC-12 cells; Rattus norvegicus, PC-12, 24 h, read-out: concentration producing 50% cell death): ~45 µM

NNc1ccccn1 [hydrazinopyridine, 2-hydrazinopyridine]
EC50 (mouse hepatocytes [1]; [14]): 40 ± 6.1 µM

NCCCC[C@H](N)C(=O)O [lysine]
acrolein removed from solution [4]: approximately 13%

NNc1nncc2ccccc12 [hydralazine]
time acrolein adducts retained susceptibility to cleavage by hydralazine (acrolein-modified BSA; BSA + 1 mM acrolein 15-180 min, then 2 mM hydralazine 30 min): at least 30 minutes
adduct-breaking activity (acrolein-lysine adducts in BSA) (acrolein-modified BSA): diminished the intensity of acrolein adducted-BSA in a concentration-dependent manner
elevation in signal intensity, 26 kDa protein (mouse liver; [15]): 2.6 fold
elevation in signal intensity, 31 kDa protein (mouse liver; [15]): 2.4 fold
adduct-trapping in liver proteins (Western blot) (mouse liver; 60 minutes after allyl alcohol 90 mg/kg + hydralazine 100 μmol/kg): strong adduct-trapping
immunohistochemical detection of hydralazine-stabilized acrolein adducts in liver sections (mouse liver): intense adduct-trapping
acrolein removed from solution [4]: approximately 82%
attenuation of allyl alcohol toxicity (LDH leakage) (mouse hepatocytes [5]): strongly attenuated the toxicity of allyl alcohol
protection against allyl alcohol toxicity (LDH leakage) (mouse hepatocytes [5]): inhibited this toxicity in a concentration dependent manner
intensity of acrolein adduct-containing protein bands (mouse hepatocytes [6]): much lower than that seen in control cells
intensity of acrolein adduct-containing protein bands (mouse hepatocytes [6]; listed as Hydralazine): decreasing levels of adducted proteins below control values
effect on cyclophosphamide-induced LDH leakage (mouse hepatocytes [3]): attenuated the toxicity of cyclophosphamide
cytoprotection against acute acrolein toxicity (LDH leakage) (mouse hepatocytes [7]): afford cytoprotection
adduct-trapping in acrolein-premodified BSA (acrolein-premodified BSA): strong adduct-trapping
adduct-trapping in cell proteins (mouse hepatocytes [8]; 100 μM allyl alcohol 25 min, then 5 to 50 μM hydralazine 30 min): intense, concentration-dependent adduct-trapping
increase in band intensity (densitometry) (mouse hepatocytes [8]; 37, 40 and 43 kDa proteins, hydralazine 4 to 10 μM, postadduction phase): 12- to-200 fold
acrolein-lysine adducts in RNase A, added at 30 minutes [9]: abolished the levels of acrolein-lysine adducts
effect on cross-linked RNase A, added at 120 minutes [9]: incapable of cleaving crosslinked RNase A
inhibition of RNase A cross-linking, added at 30 minutes [9]: strongly inhibited formation of crosslinked RNase A
protection against pentenal toxicity (mouse hepatocytes [10]; 1 mM pentenal, 3 hours): protection was most efficient for pentenal toxicity
concentration achieving complete protection against propargyl alcohol toxicity (mouse hepatocytes [10]; 1 mM propargyl alcohol, 3 hours, highest concentration used): 100 µM
concentration achieving complete protection against MDA toxicity (mouse hepatocytes [10]; 10 mM MDA, 12 to 18 hours, highest concentration used): 100 µM
EC50 (mouse hepatocytes [1]; [16]): 8.3 ± 4 µM
EC50 (mouse hepatocytes [1]; [14]): 18 ± 0.81 µM
peak plasma level [11]: ~2 µM
adduct-trapping in PC12 cell proteins (Western blot) (PC-12 cells; 100 μM hydralazine + 80 or 100 μM allylamine): intense adduct-trapping reactions
protection against allylamine toxicity, added after 4 hour prior exposure (PC-12 cells; 100 μM hydralazine, 20-100 μM allylamine): also protected
protection against allylamine toxicity, concurrent exposure (PC-12 cells; 100 μM hydralazine, 20-100 μM allylamine, overnight): clear protection
effect on allyl alcohol-induced changes in plasma SDH and GPT activities (mice; allyl alcohol 90 mg/kg i.p. + hydralazine 300 μmol/kg i.p., 4 hours): almost totally abolishing
dose affording half-maximal protection against liver injury (GPT) (mice; [17]): 80 µmol/kg
dose affording half-maximal protection against liver injury (SDH) (mice; [17]): 160 µmol/kg
effect on hepatic GSH depletion caused by allyl alcohol (mice; allyl alcohol 90 mg/kg, hepatoprotective doses up to 300 μmol/kg): had no effect upon the hepatic GSH depletion
effect on plasma SDH levels (mice; allyl alcohol 100 mg/kg i.p. + hydralazine 100 μmol/kg i.p., 4 hours): did not alter the levels of SDH
decrease in plasma SDH activity (mice; allyl alcohol 100 mg/kg i.p. + hydralazine 200 and 300 μmol/kg i.p., 4 hours): 75 to 90%
hepatoprotection (plasma SDH), 30 minute delay (mice; [18]): hepatoprotective efficacy was diminished
hepatoprotection (plasma SDH), co-administered or 20 minute delay (mice; [18]): strongly hepatoprotective

NN(c1ccccc1)c1ccccc1 [1,1-diphenylhydrazine]
EC50 (mouse hepatocytes [1]; [14]): 2 ± 0.01 µM
protection against crotyl alcohol toxicity by other hydrazines (mouse hepatocytes [2]): best protection

C=C/C=N/Nc1nncc2ccccc12 [(1E)-acrylaldehyde 1-[1-phthalazinyl]-hydrazone]
immunohistochemical detection of hydralazine-stabilized acrolein adducts in liver sections (mouse liver): no immunorecognition was evident

CON [methoxyamine]
adduct-breaking activity (acrolein-lysine adducts in BSA) (acrolein-modified BSA): effects were most evident at the top concentration studied
acrolein removed from solution [4]: around 40%
EC50 (mouse hepatocytes [1]; [16]): 9000 ± 1800 µM
EC50 (mouse hepatocytes [1]; [14]): 9000 ± 1800 µM

Cc1ncc(CO)c(CN)c1O [pyridoxamine]
adduct-breaking activity (acrolein-lysine adducts in BSA) (acrolein-modified BSA): lacked adduct-breaking potency
EC50 (mouse hepatocytes [1]; [16]): > 10000 µM
EC50 (mouse hepatocytes [1]; [14]): > 10000 µM

c1ccc(NNc2ccccc2)cc1 [1,2-diphenylhydrazine]
EC50 (mouse hepatocytes [1]; [14]): 19 ± 2.6 µM

1,1-dimethylhydrazine
EC50 (mouse hepatocytes [5]; [14]): > 100 µM

aminoguanidine
adduct-breaking activity (acrolein-lysine adducts in BSA) (acrolein-modified BSA): lacked adduct-breaking potency
acrolein removed from solution [4]: approximately 4%
EC50 (mouse hepatocytes [5]; [16]): > 10000 µM
EC50 (mouse hepatocytes [5]; [14]): > 10000 µM

NNc1nnc(NN)c2ccccc12 [dihydralazine]
adduct-breaking activity (acrolein-lysine adducts in BSA) (acrolein-modified BSA): reducing adducts below detectable levels
attenuation of LDH leakage caused by smoke extract (mouse hepatocytes [12]): completely attenuating LDH leakage at all concentrations examined
acrolein removed from solution [4]: ~92%
attenuation of allyl alcohol toxicity (LDH leakage) (mouse hepatocytes [5]): strongly attenuated the toxicity of allyl alcohol
protection against allyl alcohol toxicity (LDH leakage) (mouse hepatocytes [5]): approximately twice as protective as hydralazine
effect on cyclophosphamide-induced LDH leakage (mouse hepatocytes [3]): attenuated the toxicity of cyclophosphamide
EC50 (mouse hepatocytes [1]; [16]): 5.2 ± 1.5 µM
EC50 (mouse hepatocytes [1]; [14]): 13 ± 0.29 µM
cell viability restored to (PC-12 cells; 45 μM allylamine, 24 hr, approximately 1 μM dihydralazine and higher, allylamine alone about 40% of controls): approximately 80%
protection against crotyl alcohol toxicity (LDH leakage) (mouse hepatocytes [2]; co-incubated up to 3 hours, 1-100 μM): approximately twice as effective as hydralazine

O=C(O)c1ccccc1O [salicylic acid]
EC50 (mouse hepatocytes [1]; [14]): 59 ± 11 µM

carnosine
adduct-breaking activity (acrolein-lysine adducts in BSA) (acrolein-modified BSA): lacked adduct-breaking potency
acrolein removed from solution [4]: approximately 20%
ability to sequester crotonaldehyde from solution [13]: slightly more effective at removing crotonaidehyde from solution than pyridoxamine
EC50 (mouse hepatocytes [5]; [16]): > 10000 µM
EC50 (mouse hepatocytes [5]; [14]): > 10000 µM

CCCCNC [N-methylbutylamine]
EC50 (mouse hepatocytes [1]; [14]): 6 ± 2.2 µM

c1ccc2c(c1)[nH]c1ccccc12 [carbazole]
EC50 (mouse hepatocytes [1]; [14]): 40 ± 12 µM

Oc1ccccc1 [phenol]
EC50 (mouse hepatocytes [1]; [14]): 48 ± 12 µM

C=CCO [allyl alcohol]
cell death induced (mouse hepatocytes [5]; mouse): 100%
fatalities (mice; 90 mg/kg): no fatalities
decrease in hepatic GSH stores (mice; 90 mg/kg i.p., 4 hours): 65%
elevation of plasma GPT activity over controls (mice; 90 mg/kg i.p., 4 hours): 24 fold
elevation of plasma SDH activity over controls (mice; 90 mg/kg i.p., 4 hours): 30 fold
mortality (mice; 100 mg/kg): 30%

NCc1ccccc1 [benzylamine]
EC50 (mouse hepatocytes [1]; [14]): > 100 µM

Sc1ccccc1 [thiophenol]
EC50 (mouse hepatocytes [1]; [14]): > 100 µM

NNc1ccc2ccccc2n1 [hydrazinoquinoline, 2-hydrazinoquinoline]
EC50 (mouse hepatocytes [1]; [14]): 11 ± 0.44 µM

NNc1nccc2ccccc12 [hydrazinoisoquinoline, 1-hydrazinoisoquinoline]
EC50 (mouse hepatocytes [1]; [14]): 6 ± 0.14 µM

Nc1ccccc1 [aniline]
EC50 (mouse hepatocytes [1]; [14]): 61 ± 20 µM

CC(C)NC(C)C [diisopropylamine]
EC50 (mouse hepatocytes [1]; [14]): 66 ± 15 µM

NNc1ncnc2ccccc12 [hydrazinoquinazoline, 4-hydrazinoquinazoline]
EC50 (mouse hepatocytes [1]; [14]): 10 ± 0.05 µM

CCCC(C(=O)OCCN(CC)CC)(c1ccccc1)c1ccccc1 [proadifen]
effect on cyclophosphamide-induced LDH leakage (mouse hepatocytes [3]): abolished the cyclophosphamide-induced increase in LDH leakage

NC1CCCCC1 [cyclohexylamine]
EC50 (mouse hepatocytes [1]; [14]): > 100 µM

c1ccc(Nc2ccccc2)cc1 [diphenylamine]
EC50 (mouse hepatocytes [1]; [14]): 3 ± 1.2 µM

C1CCC(NC2CCCCC2)CC1 [dicyclohexylamine]
EC50 (mouse hepatocytes [1]; [14]): 59 ± 11 µM
